Assay [1] is filed under the species Mus musculus. The assay is described as follows: In vitro Efficacy to destroy the RIF tumor cells by MTT assay when incubated for 3 hr at drug concentration of 1.5 uM and exposed to laser light (780nm,16J/cm2). It is filed as functional. (Tetrazolium dyes change colour on reduction, which living cells bring about.)
For assay [2], the system named is Mus musculus. The assay can be described thus: In vivo photosensitizing efficacy when evaluated in mice assessed on day 90. Format: functional.

Molecules are shown by their SMILES.

Consider `CCCCCCCO[C@@H](C)C1=C(C)c2cc3[nH]c(c4c5[nH]c(cc6nc(cc1n2)[C@H](C)[C@H]6CC)c(C)c5C(=O)N(CCCCCC)C4=O)[C@@H](CCC(=O)OCCC)[C@@H]3C`, for which the Efficacy in the assay filed under Mus musculus [1] is 100%; in the assay with Mus musculus [2] it was 2 No. of mice tumor free.

As to `CCCCCCCO[C@H](C)C1=C(C)c2cc3[nH]c(c4c5[nH]c(cc6nc(cc1n2)[C@H](C)[C@H]6CC)c(C)c5C(=O)N(CCCCCC)C4=O)[C@@H](CCC(=O)OCCC)[C@@H]3C`, the Efficacy in the assay listed under Mus musculus [1] is 100%; with Mus musculus [2] it was 6 No. of mice tumor free.

(Values after ChEMBL document CHEMBL1138757, “Synthesis and photosensitizing efficacy of isomerically pure bacteriopurpurinimides” (2004).)
